PubChem BioAssay (NCI)
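Exposure lasted 48 hours, with cells grown in 96-well plates and compounds tested at five concentrations. GI50 marks 50% less growth. TGI marks complete inhibition of growth.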

Columns and labels:
Assay in all cases: growth of human tumour cells (NCI), 48 h
A498 renal = system: A498 renal
EKVX NSCLC = system: EKVX NSCLC
SN12C renal = system: SN12C renal
MCF7 breast = system: MCF7 breast
TK-10 renal = system: TK-10 renal
OVCAR-8 ovarian = system: OVCAR-8 ovarian
HOP-62 NSCLC = system: HOP-62 NSCLC
DU-145 prostate = system: DU-145 prostate
COLO 205 colon = system: COLO 205 colon
OVCAR-4 ovarian = system: OVCAR-4 ovarian

| SMILES | TGI (A498 renal) [µM] | TGI (EKVX NSCLC) [µM] | TGI (SN12C renal) [µM] | TGI (MCF7 breast) [µM] | TGI (TK-10 renal) [µM] | TGI (OVCAR-8 ovarian) [µM] | TGI (HOP-62 NSCLC) [µM] | TGI (DU-145 prostate) [µM] | TGI (COLO 205 colon) [µM] | TGI (OVCAR-4 ovarian) [µM] | GI50 (A498 renal) [µM] | GI50 (EKVX NSCLC) [µM] | GI50 (SN12C renal) [µM] | GI50 (MCF7 breast) [µM] | GI50 (TK-10 renal) [µM] | GI50 (OVCAR-8 ovarian) [µM] | GI50 (DU-145 prostate) [µM] | GI50 (COLO 205 colon) [µM] | GI50 (OVCAR-4 ovarian) [µM] |
| --- | --- | --- | --- | --- | --- | --- | --- | --- | --- | --- | --- | --- | --- | --- | --- | --- | --- | --- | --- |
| Cc1ccc(C(=O)c2[nH]c(Nc3cc(C)ccn3)c(C(=S)Nc3ccccc3)c2N)cc1 | > 100 | > 100 | > 100 | > 100 | > 100 | > 100 | > 100 | > 100 | > 100 | > 100 |  |  |  |  |  |  |  |  |  |
| Cc1ccsc1C(=S)Nc1ccc(Cl)c(C(=O)OC(C(C)C)C(C)C)c1 | > 100 | > 100 | > 100 | > 100 | > 100 | > 100 |  | > 100 | 26.1 | > 100 |  |  |  |  |  |  |  |  |  |
| Cc1cc(C)nc(NS(=O)(=O)c2ccc(Nc3c4ccccc4nc4c(C(=O)N5CCN(CCOS(C)(=O)=O)CC5)ccc(Cl)c34)cc2)n1 | > 100 |  | > 100 |  | > 100 | > 100 | > 100 |  | > 100 | > 100 |  |  |  |  |  |  |  |  |  |
| CCC1(CC)C(=O)NC(=S)N=C1N | > 100 | > 100 | > 100 |  | > 100 | > 100 | > 100 |  | > 100 | > 100 |  |  |  |  |  |  |  |  |  |
| CCNC(=S)N/N=C/c1ccccn1 | 36.8 | > 100 | 41 |  | > 100 | > 100 | 54 | 58.5 | > 100 | 4.98 |  |  |  |  |  |  |  |  |  |
| COc1cc2c(cc1O)CC[n+]1cc3c(OC)c(OC)ccc3cc1-2 | > 100 | > 100 | > 100 | > 100 | > 100 | > 100 |  | > 100 | > 100 | > 100 |  |  |  |  |  |  |  |  |  |
| Cc1cc(C)nc(NS(=O)(=O)c2ccc(Nc3c4ccccc4nc4c(C(=O)NCCO)cccc34)cc2)n1 | > 100 | > 100 | > 100 | 42.8 |  | > 100 | 71.3 | > 100 | 31.3 | 97.5 |  |  |  |  |  |  |  |  |  |
| CCOP(=O)(OCC)c1cc(-c2ccccc2)ccc1N | > 100 | > 100 |  | > 100 | > 100 | > 100 | > 100 | > 100 | > 100 | > 100 |  |  |  |  |  |  |  |  |  |
| O=c1oc2ccccc2c2nc3ccccc3cc12 | 96.4 | > 100 | > 100 |  | > 100 | > 100 |  | > 100 | > 100 | 47.7 |  |  |  |  |  |  |  |  |  |
| Nc1nc(Nc2ccc(OCc3cccc(F)c3)cc2)c2c(n1)[nH]c1ccc(O)cc12 | 33.1 | 29.4 | 4.56 | 11.8 | 16.4 | 13.2 |  | 15.6 | 5.98 | 6.04 | 15.7 | 8.86 | 2.08 | 2.87 | 3.49 | 3.49 | 4.22 | 2.42 | 2.18 |
| CC12CCC(C/C1=N\NC(N)=O)C2(C)C (stereo not given) |  | > 100 | > 100 | > 100 | > 100 | > 100 | > 100 | > 100 | > 100 | > 100 |  |  |  |  |  |  |  |  |  |
| C/C(=N\Nc1nc2ccccc2s1)c1cccnn1 |  | 33.5 | > 100 | > 100 |  | 12.2 | 14.5 | > 100 | > 100 | > 100 |  |  |  |  |  |  |  |  |  |
| COc1cc2c(cc1OCCCOc1cc3c(cc1OC)C(=O)N1CCC[C@H]1CN3)N=C[C@@H]1CCCN1C2=O | 0.668 | > 49 | > 33 |  | 0.554 | 1.28 | 0.892 | > 37.7 |  | > 36.5 | 0.262 |  |  |  |  |  |  |  |  |
| CCOC(=O)c1c(NC(=S)Nc2ccc(C)cc2)sc2c1CCN(C)C2 | > 100 | > 100 | > 100 | > 100 | > 100 | > 100 | > 100 | > 100 | > 100 |  |  |  |  |  |  |  |  |  |  |
| COC(=O)c1sc2ncc3c(c2c1N)CC(C)CC3 (stereo not given) | > 100 | > 100 | > 100 | > 100 | > 100 |  | > 100 | > 100 | > 100 | > 100 |  |  |  |  |  |  |  |  |  |
| O=C1NN=C(c2c[nH]c3ccccc23)CC1NCc1ccccc1 (stereo not given) | > 100 |  | > 100 |  | > 100 | > 100 | > 100 | > 100 | > 100 |  |  |  |  |  |  |  |  |  |  |
| N#CC(C#N)=Cc1cccc(Oc2ccccc2)c1 | > 100 | > 100 | 48.9 |  | > 70.6 | > 31.6 | 64.6 |  | 73.9 |  |  |  |  |  |  |  |  |  |  |
| OC(c1ccco1)C(F)(F)c1nc2ccccc2o1 (stereo not given) | > 100 | > 100 |  | > 100 | > 100 | > 100 | > 100 | > 100 | > 100 | > 100 |  |  |  |  |  |  |  |  |  |
| COC(=O)/C(=N\NC(=S)NN)C(C(=O)C(=O)Nc1ccccc1C(N)=O)c1nc2ccccc2[nH]c1=O (stereo not given) |  | > 100 | > 100 |  | > 100 | > 100 |  |  | > 100 | > 100 |  |  |  |  |  |  |  |  |  |
| O=C1c2c(c3c4ccc(Br)cc4oc3c3[nH]c4ccccc4c23)C(=O)N1O | 4.41 |  |  | > 100 | > 100 | > 100 |  | > 100 |  |  | 0.585 |  |  | 1.12 | 4.67 | 1.45 | 3.23 |  |  |
| NC(=O)NC(=NCc1ccccc1)NCc1ccccc1 |  | > 100 | > 100 |  | > 100 | > 100 | > 100 |  | > 100 | > 100 |  |  |  |  |  |  |  |  |  |
| COc1cc(-c2c3c(cc4c2OCO4)[C@@H](Nc2ccc4c(c2)Cc2cc(N[C@@H]5c6cc7c(cc6C(c6cc(OC)c(O)c(OC)c6)[C@H]6C(=O)OC[C@H]56)OCO7)ccc2-4)[C@H]2COC(=O)[C@@H]2C3)cc(OC)c1O (stereo not given in full) | 94.2 | > 100 | > 100 | > 100 | > 100 | > 100 | 57.5 | > 100 | 28.7 |  |  |  |  |  |  |  |  |  |  |
